According to ChEMBL document CHEMBL1201862, “PubChem BioAssay data set” (2004):
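Growth conditions: 96-well plates. Treatment: test compound, 48 hours, 5 concentrations. Analysis: linear interpolation between bracketing concentrations; unreached endpoints set to highest concentration. GI50 is the concentration that inhibits growth by half.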 Active and inactive are the calls of the source. Rule as the data show it: active = GI50 up to about 1.1 µM and inactive = higher.

Key:
Experiment in all cases: NCI-60 cell line screen, 48 h
PC-3 = tested on: PC-3
IGROV-1 = tested on: IGROV-1
NCI-H23 = tested on: NCI-H23
SF-268 = tested on: SF-268
BT-549 = tested on: BT-549
OVCAR-4 = tested on: OVCAR-4
NCI/ADR-RES = tested on: NCI/ADR-RES
K562 = tested on: K562
MDA-MB-435 = tested on: MDA-MB-435
TK-10 = tested on: TK-10
MDA-MB-231 = tested on: MDA-MB-231
DU-145 = tested on: DU-145
T47D = tested on: T47D
SF-539 = tested on: SF-539
RXF 393 = tested on: RXF 393
Hs-578T = tested on: Hs-578T
NCI-H522 = tested on: NCI-H522
CAKI-1 = tested on: CAKI-1
KM12 = tested on: KM12

Row | Structure (SMILES) | GI50 (PC-3) | GI50 (IGROV-1) | GI50 (NCI-H23) | GI50 (SF-268) | GI50 (BT-549) | GI50 (OVCAR-4) | GI50 (NCI/ADR-RES) | GI50 (K562) | GI50 (MDA-MB-435) | GI50 (TK-10) | GI50 (MDA-MB-231) | GI50 (DU-145) | GI50 (T47D) | GI50 (SF-539) | GI50 (RXF 393) | GI50 (Hs-578T) | GI50 (NCI-H522) | GI50 (CAKI-1) | GI50 (KM12)
1 | C[NH+]1[C@@H](Cc2ccccc2)C(=O)O[B-]1(F)c1ccccc1 (stereo not given in full) | > 100 µM (inactive) | > 100 µM (inactive) | > 100 µM (inactive) | > 100 µM (inactive) | > 100 µM (inactive) | > 100 µM (inactive) | > 100 µM (inactive) | > 100 µM (inactive) | > 100 µM (inactive) | > 100 µM (inactive) | > 100 µM (inactive) | > 100 µM (inactive) | > 100 µM (inactive) |  |  |  |  |  | 
2 | COc1ccc(N[S+]([O-])C2CCCCC2)cc1 (stereo not given) |  | > 100 µM (inactive) | > 100 µM (inactive) | > 100 µM (inactive) |  |  | > 100 µM (inactive) | > 100 µM (inactive) | > 100 µM (inactive) | > 100 µM (inactive) | > 100 µM (inactive) | > 100 µM (inactive) |  | > 100 µM (inactive) | > 100 µM (inactive) | > 100 µM (inactive) | > 100 µM (inactive) | > 100 µM (inactive) | > 100 µM (inactive)
3 | C=CCOC(=O)C1=C(CCC[C@@H](C)O[Si](C)(C)C(C)(C)C)N=C(N)N2[C@H](CCO)CC[C@@H]12 | 8.45 µM (inactive) |  | 17.7 µM (inactive) | 17.3 µM (inactive) | 21.8 µM (inactive) | 10.5 µM (inactive) | 19.7 µM (inactive) | 6.34 µM (inactive) | 14.7 µM (inactive) | 16.9 µM (inactive) | 15.3 µM (inactive) | 14.3 µM (inactive) | 11.8 µM (inactive) |  |  |  | 12.7 µM (inactive) | 13.4 µM (inactive) | 11.3 µM (inactive)
4 | O=C(O)c1c(CC(Cc2ccc3c(c2)CCC3)C(=O)O)ccc2c1CCC2 (stereo not given) | > 100 µM (inactive) | > 100 µM (inactive) | > 100 µM (inactive) |  | > 100 µM (inactive) | > 100 µM (inactive) | > 100 µM (inactive) | > 100 µM (inactive) | > 100 µM (inactive) | > 100 µM (inactive) | > 100 µM (inactive) | > 100 µM (inactive) |  | > 100 µM (inactive) |  | > 100 µM (inactive) | > 100 µM (inactive) | > 100 µM (inactive) | > 100 µM (inactive)
5 | CCOC(=O)COc1cc(-c2ccccc2F)nc2cc3c(cc12)OCO3 | > 100 µM (inactive) | 90.8 µM (inactive) | > 100 µM (inactive) | > 100 µM (inactive) | > 100 µM (inactive) |  | > 100 µM (inactive) | 38.1 µM (inactive) | > 100 µM (inactive) | > 100 µM (inactive) | > 100 µM (inactive) | > 100 µM (inactive) | 79.8 µM (inactive) | > 100 µM (inactive) | > 100 µM (inactive) |  |  | > 100 µM (inactive) | > 100 µM (inactive)
6 | CC[C@H](CO)Nc1nc(NCc2ccccc2)c2ncn(C(C)C)c2n1 [SELICICLIB] | 19.9 µM (inactive) | 5.78 µM (inactive) | 13.2 µM (inactive) | 19.8 µM (inactive) |  | 35.2 µM (inactive) | 6.97 µM (inactive) | 53 µM (inactive) | 13.3 µM (inactive) | 64.1 µM (inactive) | 39.7 µM (inactive) | 16.9 µM (inactive) | 16.3 µM (inactive) | 15.8 µM (inactive) | 4.9 µM (inactive) |  | 16.4 µM (inactive) | 6.17 µM (inactive) | 5.26 µM (inactive)
7 | CC1CN=C(N(C)C(=O)Nc2ccc(Cl)cc2)S1 (stereo not given) | 15.7 µM (inactive) | 4.56 µM (inactive) | 21.3 µM (inactive) | 41.5 µM (inactive) |  | 65.2 µM (inactive) | 1.9 µM (inactive) | 8.61 µM (inactive) |  | 29.1 µM (inactive) | 32.1 µM (inactive) | 12.9 µM (inactive) | 4.19 µM (inactive) | 10.6 µM (inactive) |  | 25.5 µM (inactive) |  | 3.64 µM (inactive) | 4.72 µM (inactive)
8 | COc1cc(OC)c(/C=N/N=C(\N)NO)c(OC)c1 | > 100 µM (inactive) | 90.6 µM (inactive) | > 100 µM (inactive) | > 100 µM (inactive) |  | > 100 µM (inactive) | > 100 µM (inactive) | 41.6 µM (inactive) | 49.8 µM (inactive) | > 100 µM (inactive) | > 100 µM (inactive) | 85.5 µM (inactive) | > 100 µM (inactive) | > 100 µM (inactive) | > 100 µM (inactive) | > 100 µM (inactive) | > 100 µM (inactive) | > 100 µM (inactive) | 0.787 µM (active)
9 | CC1SC(=O)SC1C (stereo not given) | > 100 µM (inactive) | > 100 µM (inactive) |  | > 100 µM (inactive) |  | > 100 µM (inactive) | > 100 µM (inactive) | > 100 µM (inactive) | > 100 µM (inactive) | > 100 µM (inactive) | > 100 µM (inactive) |  | > 100 µM (inactive) | > 100 µM (inactive) |  | > 100 µM (inactive) | > 100 µM (inactive) |  | > 100 µM (inactive)
10 | C#CCCCCC#CC1CCCC1C1=CC(=O)c2ccccc21 (stereo not given) |  | 6 µM (inactive) | 10.6 µM (inactive) | 3.32 µM (inactive) |  | 10.3 µM (inactive) |  | 2.4 µM (inactive) |  | 20.3 µM (inactive) |  |  |  | 8.93 µM (inactive) | 4.81 µM (inactive) |  | 7.93 µM (inactive) |  | 6.27 µM (inactive)
11 | Cn1c(=O)n2c(-c3ccccc3)c(-c3ccccc3)n2c1=O | > 100 µM (inactive) | > 100 µM (inactive) | > 100 µM (inactive) |  | > 100 µM (inactive) | > 100 µM (inactive) | > 100 µM (inactive) | > 100 µM (inactive) |  | > 100 µM (inactive) | > 100 µM (inactive) |  |  | > 100 µM (inactive) | > 100 µM (inactive) | > 100 µM (inactive) |  | > 100 µM (inactive) | > 100 µM (inactive)
12 | CC(C)C(O)(C(=O)OCN1C(=O)C2C3C=CC(C2C1=O)C1C2C(=O)N(COC(=O)C(O)(C(C)C)C(C)O)C(=O)C2C31)C(C)O (stereo not given) | > 100 µM (inactive) | > 100 µM (inactive) | > 100 µM (inactive) | > 100 µM (inactive) |  | > 100 µM (inactive) | > 100 µM (inactive) | > 100 µM (inactive) | > 100 µM (inactive) | > 100 µM (inactive) | > 100 µM (inactive) | > 100 µM (inactive) | > 100 µM (inactive) | > 100 µM (inactive) | > 100 µM (inactive) | > 100 µM (inactive) | > 100 µM (inactive) | > 100 µM (inactive) | > 100 µM (inactive)
13 | O=C(CNc1cccc(Cl)c1)Nn1c(-c2ccccc2)nc2ccccc2c1=O | 10.2 µM (inactive) | 4.35 µM (inactive) | 2.4 µM (inactive) | 4.71 µM (inactive) | 2.16 µM (inactive) | 3.58 µM (inactive) |  | 2.66 µM (inactive) | 4.2 µM (inactive) | > 10 µM (inactive) | 3.37 µM (inactive) | 16 µM (inactive) |  | 3.69 µM (inactive) |  | 19.2 µM (inactive) | 1.42 µM (inactive) |  | 10.9 µM (inactive)
14 | COC(=O)Cn1c(=O)oc2nc(-c3ccccc3)cc(C(F)(F)F)c21 | > 100 µM (inactive) | 66.1 µM (inactive) | > 100 µM (inactive) | > 100 µM (inactive) | > 100 µM (inactive) | 86.3 µM (inactive) | 23.8 µM (inactive) |  | 49.4 µM (inactive) | > 100 µM (inactive) | > 100 µM (inactive) | > 100 µM (inactive) | > 100 µM (inactive) | > 100 µM (inactive) | > 100 µM (inactive) |  | 25.3 µM (inactive) | > 100 µM (inactive) | 69.8 µM (inactive)
15 | COc1cc2c(c3nc4ccccc4nc13)-c1ccc(SC)c(=O)cc1[C@@H](NC(C)=O)CC2 | 0.0479 µM (active) | 0.0267 µM (active) | 0.0247 µM (active) | 0.144 µM (active) |  | 0.0562 µM (active) | 6.9 µM (inactive) | 0.0328 µM (active) | 0.0166 µM (active) |  | 0.0966 µM (active) | 0.129 µM (active) |  | 0.0248 µM (active) | > 100 µM (inactive) | 0.0182 µM (active) | 0.0327 µM (active) | 1.83 µM (inactive) | 0.0193 µM (active)
16 | COc1ccc2c(O)c1-c1c(OC)ccc(c1O)SSc1ccc(OC)c(c1O)-c1c(OC)ccc(c1O)SS2 | 5.42 µM (inactive) | 23 µM (inactive) |  | 27.4 µM (inactive) |  | 12.1 µM (inactive) |  | 5.2 µM (inactive) | > 100 µM (inactive) | 65.8 µM (inactive) | 44.3 µM (inactive) | 29 µM (inactive) | 20.8 µM (inactive) | 4.45 µM (inactive) | 16.1 µM (inactive) | 54.8 µM (inactive) | 3.58 µM (inactive) | > 100 µM (inactive) | 37.2 µM (inactive)
17 | COc1ccc(OC)c2c(C(C)=O)cccc12 | > 100 µM (inactive) | > 100 µM (inactive) | > 100 µM (inactive) | > 100 µM (inactive) |  |  | > 100 µM (inactive) | > 100 µM (inactive) |  | > 100 µM (inactive) | > 100 µM (inactive) | > 100 µM (inactive) | > 100 µM (inactive) | > 100 µM (inactive) | > 100 µM (inactive) | 88.9 µM (inactive) | > 100 µM (inactive) |  | > 100 µM (inactive)
